From US20240033244A1, “COMPOSITIONS AND METHODS FOR INHIBITING YTHDF1” (SHANGHAI INSTITUTE OF MATERIA MEDICA, CHINESE ACADEMY OF …, priority 2020, published 2024)

Columns and labels:
[1] = molecular target: T1, YTHDF1 mutant F480A (Homo sapiens, UniProt Q9BYJ9, F480A); experiment: FP assay with YTHDF1 mutant F480A; format: binding
T1 construct: GST (N, cleaved yes); made in house; host or cells: E. coli BL21 (DE3)
Procedure: The protein YTHDF1 (361-559) (SEQ ID NO: 2) and its mutants (SEQ ID NOs: 4-13) were cloned into pGEx-6P-1 vector (obtained from YouBio Co, Ltd, Catalog NO: VT1258), and the His-YTHDF1 (361-559) (SEQ ID NO: 3) used in AlphaScreen Assay was cloned into modified pET28a vector (obtained from YouBio Co, Ltd, Catalog NO: VT1207). The vectors were transformed into E. coli BL21 (DE3) cells and cultured at 37° C. When OD value reached 0.6˜0.8, 1 mM Isopropyl-β-D-thiogalactopyranoside was added to overexpress the protein at 16° C. overnight. […] Then, the proteins were further purified via cation exchange (HiTrap SP, GE Healthcare) and finally through a Superdex 75 10/300 column (GE Healthcare). At last, the purified YTHDF1(361-559) and the mutants were kept in buffer which contains 20 mM Hepes (pH 7.4) and 200 mM NaCl. For His-YTHDF1 (361-559), the protein was purified via Ni-NTA chromatography (HisTrap FF, GE Healthcare), followed by cation exchange and Superdex 75 10/300 column in sequence. And the obtained protein was kept in the buffer with the same ingredients.
All of the YTHDF1 (361-559), the 5′-FAM labeled m^6A-containing mRNA (5′-FAM-[…] (m^6A) CUGUG-3′, SEQ ID NO: 14) and the candidate compounds were diluted with assay buffer (20 mM Hepes (pH 7.4), 50 mM NaCl, 0.01% (v/v) tween 20, 5% (v/v) glycerol). […] At last, the mixtures were measured by Envision Readers (PerkinElmer). […]

[2] = test system: B16-OVA melanoma; experiment: B16-OVA tumor growth in wild-type mice; format: in vivo, mouse

T1 sequence (Q9BYJ9 with tags, fused parts or gaps F480A): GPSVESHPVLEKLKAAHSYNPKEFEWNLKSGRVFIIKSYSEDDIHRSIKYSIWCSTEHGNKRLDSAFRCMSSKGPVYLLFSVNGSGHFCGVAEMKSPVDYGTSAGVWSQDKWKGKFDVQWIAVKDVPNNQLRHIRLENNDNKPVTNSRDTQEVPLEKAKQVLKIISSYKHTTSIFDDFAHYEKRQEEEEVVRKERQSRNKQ

What does the source list for `O=C(/C=C/c1ccc(O)c(O)c1/C=C/c1ccc(O)c(O)c1)O[C@H](Cc1ccc(O)c(O)c1)C(=O)O` [SAA, Salvianolic Acid A]?
inhibitory activity against mutant binding to m6A versus wildtype [1]: significantly weaker than that against wildtype YTHDF1; tumor growth versus DMSO ([2]; 5×10^5 B16-OVA in C57BL/6 mice, 10 μM i.v. 9 days after implantation (FIG. 19)): tumor growth was much slower; tumor growth versus control ([2]; 5×10^5 B16-OVA s.c., 10 μM SAA on day 9 and 11): tumor growth was much slower
